# Structures can show the parent of a compound that is named as a salt. Where two headings read alike, the source gives them in different places.
# Experiments:
# [1] = Solution stability in 5% dextrose in water (D5W); type: physicochemical
# [2] = Photostability of solid salts; type: physicochemical
# [3] = XRPD crystal form after storage; type: physicochemical; details: after 3 months at all conditions
# Method: Various compounds disclosed herein have been placed on long-term solid-state stability protocol. The compounds were stored in glass vials closed with PTFE lined caps at 30° C./65% RH, 40° C./75% RH, 50° C. and 60° C. (ambient humidity). The results of the study after 4 weeks are shown in Table B1 and after 3 months in Table B2. Appearance and purity analysis were conducted using HPLC and XPRD. The HPLC analyses were conducted using standard equipment such as a Agilent HP1100 HPLC (Station ID: LZPES HPLC 04) with YMC-Pack ODS-AQ sub 3 μm, 150×4.6 mm Samples were prepared for XRPD by sprinkling ˜20 mg onto a Si wafer zero background plate and pressing the material flat to ensure the surface is smooth and level. The samples were analyzed according the equipment parameters below.
# [4] = Stability to gamma irradiation; type: physicochemical
# Text: There was no change in appearance and it remained partially crystalline over 1 month at all storage conditions.
# Staphylococcus aureus = experiment: Broth microdilution MIC; type: cell-based; details: for MIC: Staphylococcus aureus, read-out: MIC
# Method: (§1) Bacterial Isolates. Organisms tested in this study are listed in Table P. Clinical isolates consisted of 5 Staphylococcus aureus (MSSA), 3 Staphylococcus aureus (HA-MRSA), 2 Staphylococcus aureus (CA-MRSA), 2 Enterococcus faecalis (VSE), 2 Streptococcus pyogenes, and 2 Escherichia coli (susceptible to most antibiotics). S. aureus ATCC 29213, E. faecalis ATCC 29212, S. pneumoniae ATCC 49619, and E. coli ATCC 25922 were tested for the purposes of quality control.
# (§2) Minimal Inhibitory Concentrations (MIC) values against the selected isolates were determined using the reference broth microdilution method according to the Clinical Laboratory Standards Institute (CLSI) guidelines.
# (§3) The MIC was read and recorded as the lowest concentration of drug that inhibited visible growth of the organism.
# Enterococcus faecalis = experiment: Broth microdilution MIC; type: cell-based
# Method: as §1, §2, §3
# Streptococcus pyogenes = experiment: Broth microdilution MIC; type: cell-based
# Method: as §1, §2, §3
# Escherichia coli = experiment: Broth microdilution MIC; type: cell-based; details: Escherichia coli, read-out: MIC
# Method: as §1, §2, §3
# Streptococcus pneumoniae = experiment: Broth microdilution MIC; type: cell-based; details: ATCC49619, S. pneumoniae ATCC 49619, read-out: MIC
# Method: as §1, §2, §3
# [5] = Solution stability in water for injection (WFI); type: physicochemical
# S. aureus FabI = biological target: T1, S. aureus FabI (Staphylococcus aureus, UniProt Q6GI75); experiment: Inhibition of S. aureus FabI; type: biochemical
# T1 sequence (Q6GI75 1-256): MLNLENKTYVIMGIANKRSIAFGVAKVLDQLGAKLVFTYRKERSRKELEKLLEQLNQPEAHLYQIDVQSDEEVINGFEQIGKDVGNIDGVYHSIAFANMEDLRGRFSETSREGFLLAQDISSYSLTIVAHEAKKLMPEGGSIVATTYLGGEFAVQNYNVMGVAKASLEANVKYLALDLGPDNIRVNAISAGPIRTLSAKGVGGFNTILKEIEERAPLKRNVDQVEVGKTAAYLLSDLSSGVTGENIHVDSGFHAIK
# [6] = 1 mg/mL solution, 5° C., 4 hours
# [7] = 1 mg/mL solution, 5° C., 24 hours
# [8] = 1 mg/mL solution, 5° C., 48 hours
# [9] = 1 mg/mL solution, −20° C., 48 hours
# [10] = 25 mg/mL solution, 5° C., 4 hours
# [11] = 25 mg/mL solution, 5° C., 24 hours
# [12] = 25 mg/mL solution, 5° C., 48 hours
# [13] = 25 mg/mL solution, RT, 24 hours
# [14] = 25 mg/mL solution, RT, 48 hours
# [15] = 25 mg/mL solution, −20° C., 48 hours
smiles,measurement,setting,value
"Cc1c(CN(C)C(=O)/C=C/c2cnc3c(c2)CCC(=O)N3COP(=O)(O)O)oc2ccccc12 [Compound 10, (E)-6-[(N-methyl-((3-methylbenzofuran-2-yl)methyl)amino)-3-oxoprop-1-en-1-yl)-2-oxo-3,4-dihydro-1,8-naphthyridin-1(2H)-yl]methylphosphate bis-ethanolammonium salt]",Solution stability,[1]; [6],0.99 mg/mL
same,Solution stability % Area,[1]; [6],99.4 % Area
same,Solution stability,[1]; [7],0.99 mg/mL
same,Solution stability % Area,[1]; [7],98.8 % Area
same,Solution stability,[1]; [8],1.00 mg/mL
same,Solution stability % Area,[1]; [8],98.1 % Area
same,Solution stability,"[1]; 1 mg/mL solution, Initial",1.00 mg/mL
same,Solution stability % Area,"[1]; 1 mg/mL solution, Initial",99.5 % Area
same,Solution stability,"[1]; 1 mg/mL solution, RT, 4 hours",0.99 mg/mL
same,Solution stability % Area,"[1]; 1 mg/mL solution, RT, 4 hours",99 % Area
same,Solution stability,"[1]; 1 mg/mL solution, RT, 24 hours",0.96 mg/mL
same,Solution stability % Area,"[1]; 1 mg/mL solution, RT, 24 hours",96.1 % Area
same,Solution stability,"[1]; 1 mg/mL solution, RT, 48 hours",0.95 mg/mL
same,Solution stability % Area,"[1]; 1 mg/mL solution, RT, 48 hours",93.1 % Area
same,Solution stability,[1]; [9],0.99 mg/mL
same,Solution stability % Area,[1]; [9],99.3 % Area
same,Solution stability,[1]; [10],24.9 mg/mL
same,Solution stability % Area,[1]; [10],99.3 % Area
same,Solution stability,[1]; [11],24.5 mg/mL
same,Solution stability % Area,[1]; [11],98.7 % Area
same,Solution stability,[1]; [12],24.5 mg/mL
same,Solution stability % Area,[1]; [12],98.1 % Area
same,Solution stability,"[1]; 25 mg/mL solution, Initial",24.4 mg/mL
same,Solution stability % Area,"[1]; 25 mg/mL solution, Initial",99.6 % Area
same,Solution stability,"[1]; 25 mg/mL solution, RT, 4 hours",24 mg/mL
same,Solution stability % Area,"[1]; 25 mg/mL solution, RT, 4 hours",98.9 % Area
same,Solution stability,[1]; [13],23.8 mg/mL
same,Solution stability % Area,[1]; [13],95.6 % Area
same,Solution stability,[1]; [14],23 mg/mL
same,Solution stability % Area,[1]; [14],92.1 % Area
same,Solution stability,[1]; [15],24.6 mg/mL
same,Solution stability % Area,[1]; [15],99.3 % Area
same,Control % Area (Table C),[2]; control sample at ambient lab conditions protected from light,98.9 % Area
same,Photo-stability % Area,[2]; exposed to 60% of ICH minimum,97.7 % Area
same,change in crystal form (XRPD),[3],no change in crystal form
same,stability to gamma irradiation exposure,[4]; 28.6-30.9 kGy,stable to gamma irradiation
same,stability to gamma irradiation,"[4]; crystalline, 25 to 31 kGy",stable to gamma irradiation
same,MIC,"Staphylococcus aureus; ATCC29213, S. aureus ATCC 29213",4 µg/mL
same,MIC,"Staphylococcus aureus; MRSA, S. aureus 3083, HA-MRSA",4 µg/mL
same,MIC,"Staphylococcus aureus; MRSA, S. aureus 3086, HA-MRSA",16 µg/mL
same,MIC,"Staphylococcus aureus; MRSA, S. aureus 3265, HA-MRSA",16 µg/mL
same,MIC,"Staphylococcus aureus; MSSA, S. aureus 3104, MSSA",> 16 µg/mL
same,MIC,"Staphylococcus aureus; MSSA, S. aureus 3107, MSSA",8 µg/mL
same,MIC,"Staphylococcus aureus; MSSA, S. aureus 3245, MSSA",16 µg/mL
same,MIC,"Staphylococcus aureus; MSSA, S. aureus 3250, MSSA",8 µg/mL
same,MIC,"Staphylococcus aureus; MSSA, S. aureus 3856, MSSA",16 µg/mL
same,MIC,"Staphylococcus aureus; S. aureus 2168, CAMRSA",4 µg/mL
same,MIC,"Staphylococcus aureus; S. aureus 2294, CAMRSA",16 µg/mL
same,times less activity than Compound Z,Staphylococcus aureus; panel of 11 S. aureus strains,500-4000 times
same,MIC,"Enterococcus faecalis; ATCC29212, E. faecalis ATCC 29212, read-out: MIC",> 16 µg/mL
same,MIC,"Enterococcus faecalis; E. faecalis 4158, VSE, read-out: MIC",> 16 µg/mL
same,MIC,"Enterococcus faecalis; E. faecalis 4212, VSE, read-out: MIC",> 16 µg/mL
same,MIC,Streptococcus pyogenes; S. pyogenes 6528,>16 µg/mL
same,MIC,"Streptococcus pyogenes; Streptococcus pyogenes, S. pyogenes 6179, read-out: MIC",> 16 µg/mL
same,MIC,"Escherichia coli; ATCC25922, E. coli ATCC 25922",> 16 µg/mL
same,MIC,Escherichia coli; E. coli 2214,> 16 µg/mL
same,MIC,Escherichia coli; E. coli 5255,> 16 µg/mL
same,MIC,Streptococcus pneumoniae,> 16 µg/mL
same,Solution stability,[5]; [6],0.96 mg/mL
same,Solution stability % Area,[5]; [6],99.4 % Area
same,Solution stability,[5]; [7],0.94 mg/mL
same,Solution stability % Area,[5]; [7],98.1 % Area
same,Solution stability,[5]; [8],0.96 mg/mL
same,Solution stability % Area,[5]; [8],98.1 % Area
same,Solution stability,"[5]; 1 mg/mL solution, Initial",0.97 mg/mL
same,Solution stability % Area,"[5]; 1 mg/mL solution, Initial",99.4 % Area
same,Solution stability,"[5]; 1 mg/mL solution, RT, 4 hours",0.94 mg/mL
same,Solution stability % Area,"[5]; 1 mg/mL solution, RT, 4 hours",99.0 % Area
same,Solution stability,"[5]; 1 mg/mL solution, RT, 24 hours",0.92 mg/mL
same,Solution stability % Area,"[5]; 1 mg/mL solution, RT, 24 hours",95.5 % Area
same,Solution stability,"[5]; 1 mg/mL solution, RT, 48 hours",0.64 mg/mL
same,Solution stability % Area,"[5]; 1 mg/mL solution, RT, 48 hours",92.1 % Area
same,Solution stability,[5]; [9],0.96 mg/mL
same,Solution stability % Area,[5]; [9],99.3 % Area
same,Solution stability,[5]; [10],25.0 mg/mL
same,Solution stability % Area,[5]; [10],99.3 % Area
same,Solution stability,[5]; [11],24.4 mg/mL
same,Solution stability % Area,[5]; [11],98.6 % Area
same,Solution stability,[5]; [12],23.1 mg/mL
same,Solution stability % Area,[5]; [12],98.0 % Area
same,Solution stability,"[5]; 25 mg/mL solution, Initial",24.05 mg/mL
same,Solution stability % Area,"[5]; 25 mg/mL solution, Initial",99.5 % Area
same,Solution stability,"[5]; 25 mg/mL solution, RT, 4 hours",23.9 mg/mL
same,Solution stability % Area,"[5]; 25 mg/mL solution, RT, 4 hours",98.8 % Area
same,Solution stability,[5]; [13],22.5 mg/mL
same,Solution stability % Area,[5]; [13],95.2 % Area
same,Solution stability,[5]; [14],22.8 mg/mL
same,Solution stability % Area,[5]; [14],91.5 % Area
same,Solution stability,[5]; [15],24.4 mg/mL
same,Solution stability % Area,[5]; [15],99.2 % Area
same,inhibition of S. aureus FabI,S. aureus FabI,no inhibition
